{"source": "patent US20140341922A1", "about": "“Method for Overcoming Tolerance to Targeted Anti-Cancer Agent” (SUN R&DB Foundation, priority 2011, published 2014)", "key": {"[1]": {"tested_on": "integrin β3/Src signaling", "assay": "Western blot after integrin β3 or Src blockade", "type": "cell-based, human", "parameters": "p-EGFR, p-Src, and p-Akt levels: dose or concentration left out as unconfirmed", "procedure": "Specifically, cixutumumab-resistant cells (LN686 and FADU) and cixutumumab-sensitive cells (OSC19) grown in PCPs were treated with B3A […] or PP2 […] for 1 hour prior to activation with IGF-1 (100 ng/ml).\nIn addition, the LN686 and FADU cells grown in the PCPs were untreated or treated with cixutumumab ([…]), PP2 (10 μM), an anti-integrin β1 monoclonal antibody (A11B2, 10 μg/ml), Ad-EV or Ad-CSK (10 pfu/cell) for 7 days prior to stimulation with IGF-1 (100 ng/ml, 30 min), and to detect the proteins, western blot analysis was performed."}, "[2]": {"tested_on": "LN686, FADU, H226B, OSC19, and UMSCC38 cells", "assay": "MTS cell proliferation, combined treatment in PCPs", "type": "cell-based, human", "conditions": "7 days", "procedure": "Cells were cultured in 96-well poly(poly-2-hydroxyethyl methacrylate [HEMA])-coated plates (PCPs) or ultra-low attached plates (UAPs). Control IgG1 (25 μg/ml), cixutumumab (25 μg/ml), PP2 (10 μM), and an integrin β3 neutralizing antibody B3A (10 μg/ml) were diluted in culture media containing 10% FBS or IGF-1 and treated alone or in combination. To examine the effect on cancer cell proliferation, a 3-(4,5-dimethylthiazol-2-yl)-2,5-diphenyltetrazolium bromide (MTT) or 3-(4,5-dimethylthiazol-2-yl)-5-(3-carboxymethoxyphenyl)-2-(4-sulfophenyl)-2H-tetrazolium (MTS) assay was performed, and to evaluate the effect on anchorage-independent colony formation, a soft agar colony formation assay was performed according to a method in our previous report (Morgillo et al., 2006).\nIn addition, the LN686, FADU, H226B, OSC19, and UMSCC38 cells grown in PCPs were untreated or treated with cixutumumab (25 μg/ml), anti-integrin β3 mAb (αβ3, 10 μg/ml), PP2 (10 μM), or a combination thereof for 7 days. Each bar represents the mean±SD of 6 wells treated with the same sample in one representative experiment."}}}
{"compound": "CC(C)(C)n1nc(-c2ccc(Cl)cc2)c2c(N)ncnc21", "note": "[PP2]", "values": [{"measurement": "p-EGFR, p-Src, and p-Akt levels", "setting": "[1]; LN686, FADU and OSC19, 6 h", "result": "marked decreases"}, {"measurement": "cixutumumab-induced increases in p-Src, p-FAK, p-EGFR, p-Akt, and p-mTOR", "setting": "[1]; LN686 or FaDu cells, integrin β3 mAb 100 μg/ml or PP2 10 μM", "result": "almost completely blocked"}, {"measurement": "antiproliferative activities of cixutumumab on combined treatment", "setting": "[2]; cixutumumab-resistant cells (LN686, FADU, H226B)", "result": "significantly augmented"}, {"measurement": "antiproliferative activities of cixutumumab on combined treatment", "setting": "[2]; cixutumumab-sensitive cells (OSC19 and UMSCC38)", "result": "not"}]}
